Where “and” joins values, the source holds several entries; their conditions need not be identical. Identical values can stand only once.
Key:
[1] = test system: human MCF-7 cells; experiment: Visually scored toxicity of NAC-MTN / NAC-DOX at fixed loading (Example 3); type: cell-based; details: 5.1% drug loading, 16 hour incubation
Description: Toxicity of NAC-MTN or NAC-DOX, at 50, 16.9, 5.6, and 1.9 ug/ml final drug concentration and 5.1 % drug loading in human MCF-7 cells. Sample A: 15 mg of HSDNA (EX031804A) was combined with 0.76 mg MTN(mw 517.4) or (sample B) 0.76 mg DOX (mw 579.99) to give 152 ug/ml final drug and 5.1% loading in 5 ml final vol. Samples C, D were MTN, or DOX only controls at equivalent final [drug] without HSDNA. Sample E was HSDNA, no drug and sample F was H2O only. MCF-7 cells were trypsinized and plated out previously. Triplicate samples were diluted 0.1 ml in 0.2 ml 1× media to give 3× fold serial dilution in 0.2 ml final. After 16 hour incubation the cells were visually inspected for signs of toxicity. Toxicity was scored as the following: 50%=one half all cells rounded, un-adhered or crenated.

[2] = Paclitaxel solubilization by NAC, turbidity OD410 (Example 8); type: physicochemical; details: formulation with a nucleic acid
Description: Solubility enhancement of paclitaxel by NAC. Aqueous paclitaxel solutions were prepared with or without DNA, sonicated, stored at room temperature for several hours, and then centrifuged. The pellets were resuspended in 50% ethanol and the precipitated paclitaxel was quantified using a standard absorbance curve at 230 nm. The total percentage of solubilized paclitaxel was calculated using %=100× (1-assy mM)/expected mM.
Materials: Paclitaxel 10.0 mg/ml (0.0118M, m.w. 853.92) in 80% ETOH. HSDNA (herring sperm degraded DNA 428A, Sigma-Aldrich) 10 mg/ml pH7 HSGDNA (genomic, Promega mw range 100 bp-3000 bp) 10 mg/ml. […] 1M potassium phosphate buffer pH5.
Aqueous paclitaxel solutions were prepared by combining 10 ul (0.01 ml) of paclitaxel stock (11.8 mM) with 2.0 ml H2O containing water only, HSGDNA, HSDNA, RNA, or HSDNA/pPEGPEI2K as indicated in the table. Samples were sonicated 3 min. with Branson Sonifier 450 @40% duty, at #3 output level. In 10 mM potassium phosphate pH5.
Let solutions stand 30 min, and read turbidity of 0.3 ml at A410 on the Synergy HT1. Samples were 10 min @2500 rpm on Beckman Allegra21R. The pellet was resuspended in 1.5 ml of 50% ETOH and OD230 nm was taken of a 0.3 ml sample in a Falcon UV clear plate on Synergy HT1. Prepared paclitaxel standard curve, 10 ul of 9.81 mM in 1 ml 50% ETOH was diluted 2×, serially in 5 vials at 0.5 ml final vol. […]

[3] = physiological conditions; cited from earlier work
[4] = Dipyridamole precipitation assay, supernatant absorbance A410 (Example 6); type: physicochemical
Description: Similar results were obtained for dipyridamole (DPA). Dipyridamole is a coronary vasodilator and functions primarily to reduce platelet adhesion and aggregation. […] Dipyridamole for intravenous injection is given as a sodium chloride or dextrose injection with 5 mg of DPA, 50 mg PEG600, 2 mg tartaric acid, and water at pH 2.7. Dipyridamole is readily soluble in acidic solution, however at higher pH it can precipitate. […] Furthermore, the nucleic acid targeting of dipyridamole can provide unexpected therapeutic benefits by enhancing its accumulation in specific areas of the body.
Dipyridamole (DPA, m.w. 504.6) was prepared as 10.27 mM […] solution in water acidified with HCl. DNA was from HSDNA 428A) 10 mg/ml in H2O prev. heated to 80C.
Prepared samples 1-3 by combining 25 ul of DPA and 0.2 ml DNA to give a turbid solution. Added 7 ul of 1M HCl to clarify, followed by 0.1 ml of 1M potassium phosphate buffer (KP) pH7. Repeated for samples 4-6 and replace DNA with water. […] Read absorbance of 0.3 ml supernatant at A410. Higher values corresponded to more drug solubilized.

[5] = Stability of NAC-DOX complex in hank's buffered saline (HBSS) at pH 7; type: physicochemical
Description: The NAC-DOX complex was tested for stability in hank's buffered saline (HBSS) at pH 7.

[6] = test system: MCF7 cells; experiment: Drug loading vs toxicity at fixed [drug], MTT viability assay (Example 4); type: cell-based, human; details: Drug only, without carrier; 0.103 mM DOX; 72 hours
Description: FIG. 1. […] NAC-MTN or NAC-DOX were prepared at different weight:weight % of drug:nucleic acid and incubated in cells. For each sample and corresponding % loading, the total drug was held constant at 0.058 mM MTN or 0.1 mM DOX. After incubation in cells, cell viability was assayed via mitochondrial dehydrogenase activity against 3-[4,5-dimethylthiazol-2-yl]-2,5-diphenyl tetrazolium bromide (MTT) and reported as % toxicity relative to untreated cells.
Mitoxantrone (MTN, Sigma Aldrich) and Doxorubicin HCl (DOX) were diluted in HBSS to 1 mg/ml final. DNA, from degraded herring sperm DNA <40 bp (HSDNA, Sigma Aldrich), was prepared in water at 10 mg/ml. The drug was diluted in water or HBSS first, followed by addition of the DNA, in order to prevent precipitation. Precipitation of drug was especially a concern at 40% loading of MTN, which is the loading limit for HSDNA (degraded) and so the DNA is added slowly to the diluted MTN (the reverse addition leads to precipitation). All NAC-MTN formulation stocks were prepared at 0.15 mg/ml final MTN, and different concentration of DNA in order to give 15, 25, and 35.7% final drug loading w/w % of MTN/DNA in 0.5 ml final volume. All NAC-DOX formulations were prepared at 0.3 mg/ml final DOX, and either 5, 10, or 15% loaded drug weight/weight % of DOX/DNA in 0.5 ml final volume. […]

[7] = after 5 days; cited from earlier work

Molecule | Toxicity (visual score) ([1]; 5.6 ug/ml final drug) [%] | Toxicity (visual score) ([1]; 17 ug/ml final drug) | Toxicity (visual score) ([1]; 50 ug/ml final drug) [%] | Toxicity (visual score) ([1]; 1 .9 ug/ml final drug) [%] | other results
O=C1c2c(O)ccc(O)c2C(=O)c2c(NCCNCCO)ccc(NCCNCCO)c21 [C, mitoxantrone] | 90 | 100% | 100 | 20 | –
CC(=O)O[C@H]1C(=O)[C@@]2(C)[C@H]([C@H](OC(=O)c3ccccc3)[C@]3(O)C[C@H](OC(=O)[C@H](O)[C@@H](NC(=O)c4ccccc4)c4ccccc4)C(C)=C1C3(C)C)[C@]1(OC(C)=O)CO[C@@H]1C[C@@H]2O [paclitaxel] | – | – | – | – | enhancement of solubility of paclitaxel compared with water alone [2]: ≤ 200%
Mylotarg: mAB-calcheamicin conjugate with hydrazone linker | – | – | – | – | drug existing in free form [3]: approximately 50%
OCCN(CCO)c1nc(N2CCCCC2)c2nc(N(CCO)CCO)nc(N3CCCCC3)c2n1 [DPA, dipyridamole] | – | – | – | – | stability against precipitation ([4]; formulated with the nucleic acid carrier, aqueous solutions at pH 7): stabilized dipyridamole against precipitation; A410 of supernatant ([4]; potassium phosphate buffer pH7, 16 hours, higher = more drug solubilized, replicate samples): 0.388 and 0.396 and 0.401
COc1cccc2c1C(=O)c1c(O)c3c(c(O)c1C2=O)C[C@@](O)(C(=O)CO)C[C@@H]3O[C@H]1C[C@H](N)[C@H](O)[C@H](C)O1 [Sample D, doxorubicin] | 20 | 80% | 100 | 10 | –
COc1cccc2c1C(=O)c1c(O)c3c(c(O)c1C2=O)C[C@@](O)(C(=O)CO)C[C@@H]3O[C@H]1C[C@H](N)[C@H](O)[C@H](C)O1 [DOX, doxorubicin] | – | 80-90% | – | – | stability in hank's buffered saline (HBSS) at pH 7 [5]: became unstable at pH 7; % Tox [6]: 67%; administered drug recovered in urine [7]: 4-5%
